Experimental data reported in patent US20140294894A1 (priority 2007, published 2014).
Ends that are not written are not given here.

Key:
tetanus toxin = system: tetanus toxin; set-up: species or system mice; settings: mouse, in vivo
TT = system: TT; set-up: species or system mice; settings: mouse, in vivo
splenocytes = format: cell-based, mice
Spleen cells = experiment: Cytokine assay; format: cell-based, mice
[1] = Experiment 1, following restimulation

Substance: FCIGRL [AT1002]
- protective antibody levels compared to immunization with TT alone (tetanus toxin): increased protective antibody levels
- anti-tetanus IgG subclass titers (IgG1, IgG2a): shift toward a Th1 response (TT): No indication of a shift toward a Th1 response
- anti-tetanus response (tetanus IgG titer) compared to tetanus toxoid alone (TT): significantly enhances the anti-tetanus response in a dose-dependent manner
- anti-tetanus response (tetanus IgG titer), effect of higher dose (TT): does not increaser the anti-tetanus response
- proliferation of spleen cells on restimulation with immunizing antigen (Stimulation Index) (splenocytes): induces the strongest cell proliferation response
- IL-5 production compared to groups immunized with toxoid (TT) alone (Spleen cells; [1]): does not increase production
- IL-10 production compared to groups immunized with toxoid (TT) alone (Spleen cells; [1]): does not increase production
- IL-6 production by spleen cells compared to groups immunized with toxoid (TT) alone (Spleen cells; Experiment 1, restimulation with TT 0-100 μg/ml, FIG. 8A): does increase IL-6 production
- IFN-γ production by spleen cells compared to groups immunized with toxoid (TT) alone (Spleen cells; Experiment 1, restimulation with TT 0-100 μg/ml, FIG. 8B): does not increase IFN-γ production
- IL-6 production by spleen cells compared to groups immunized with toxoid (TT) alone (Spleen cells; Experiment 2, restimulation with TT 0-100 μg/ml, FIG. 14A): does increase IL-6 production
